# Experimental data as given in patent US11759462B2, “Spirocyclic compounds as tryptophan hydroxylase inhibitors” (priority 2013, dated 2023).
# Biological target: T1, Recombinant human TPH1 (MBP tagged) (Homo sapiens, UniProt P17752)
# T1 construct: cloning full length human TPH1 cDNA in to a bacterial pMAL-c5E expression vector; made in house; host or cells: E. coli BL21 (DE3)
# T1 sequence (P17752 1-444): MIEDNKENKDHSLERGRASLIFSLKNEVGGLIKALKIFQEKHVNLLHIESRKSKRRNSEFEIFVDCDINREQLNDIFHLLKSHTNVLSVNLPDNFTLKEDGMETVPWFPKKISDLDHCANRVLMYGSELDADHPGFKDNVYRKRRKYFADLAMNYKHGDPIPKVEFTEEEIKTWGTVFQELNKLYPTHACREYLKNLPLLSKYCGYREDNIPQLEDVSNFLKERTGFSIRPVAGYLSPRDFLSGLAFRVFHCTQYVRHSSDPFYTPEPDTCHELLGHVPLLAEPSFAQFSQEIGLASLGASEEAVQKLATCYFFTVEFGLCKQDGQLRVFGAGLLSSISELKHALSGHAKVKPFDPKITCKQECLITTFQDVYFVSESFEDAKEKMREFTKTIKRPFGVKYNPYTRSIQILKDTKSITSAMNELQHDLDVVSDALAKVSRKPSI
# Experiment: TPH1 in vitro inhibition assay (kinetic fluorescence)
# Assay type: biochemical
# Details: TPH1 Range (TPH1 inhibition IC50)
# Text: Recombinant human TPH1 (rTPH1 GenBank™ accession no. NP_004179) was expressed by cloning full length human TPH1 cDNA in to a bacterial pMAL-c5E expression vector to produce maltose-binding protein (MBP) TPH1 fusion proteins. E. coli BL21 (DE3) containing pMAL-c5E-TPH1 was used for protein generation and the recombinant protein was purified utilizing standard column chromatography techniques. The MBP tagged TPH1 (MBP-TPH1) was used directly to screen compounds as described below. Recombinant human TPH2 (rTPH2 GenBank™ accession no. 173353), PheOH (rPheOH GenBank™ accession no. K03020) and TH (rTH GenBank™ accession no. L20679) with an MBP tag were produced similarly.
# TPH1 activities were measured in an assay containing 200 mM ammonium sulfate, 7 mM DTT, 50 μg/mL catalase, 25 μM ammonium iron sulfate, 50 mM MES, pH 7.1. Test compounds were diluted in 100% DMSO and added to the assay plate in 1 μL aliquots at 100× final concentration. Fifty microliters of assay buffer containing 30 nM TPH1 enzyme (MBP tagged) were added to the plate wells containing the test compound by the use of an Eppendorf repeater pipette. The reaction was initiated by the addition of 50 μL of assay buffer containing 60 μM tryptophan and 72 μM 6-6-methyltetra-hydropterin (2× final concentration) by the use of a Multidrop (LabSystems). Final reaction conditions were 15 nM TPH1 enzyme, 30 μM tryptophan, 36 μM 6-methyltetra-hydropterin, 200 mM ammonium sulfate, 7 mM DTT, […], 25 μM ferrous ammonium sulfate, 50 mM MES, pH 7.1, with atmospheric oxygen at room temperature. The plate was immediately placed onto an M5 plate reader (Molecular Devices) for kinetic fluorescence measurement using an excitation setting of 300 nm and an emission setting of 335 nm. Fluorescence reads are recorded in kinetic mode for 300 seconds (5 minutes).
# Kinetic assay data for compounds at specific concentrations was translated into slopes using the Softmax Pro software on a Spectramax reader, and compound inhibition slopes were compared with wells containing enzyme, substrate and cofactor in the absence of inhibitor (100%), and wells containing substrate and cofactor in the absence of enzyme (0%). DMSO concentration in the assay was 1%. […] IC50's were determined using Graphpad Prism.
row,Structure (SMILES),IC50
1,"COc1ccc(-c2ccc([C@@H](Oc3cc(N4CCC5(CC4)CN[C@H](C(=O)O)C5)nc(N)n3)C(F)(F)F)c(-n3ccc(C)n3)c2)cc1 [Example 1bm, (S)-8-(2-amino-6-((R)-2,2,2-trifluoro-1-(4′-methoxy-3-(3-methyl-1H-pyrazol-1-yl)-[1,1′-biphenyl]-4-yl)ethoxy)pyrimidin-4-yl)-2,8-diazaspiro[4.5]decane-3-carboxylic acid]",< 50 nM

# Same assay, conditions: read-out: TPH1 Range (TPH1 inhibition IC50)
row,Structure (SMILES),IC50
1,"Cc1cc(-c2ccc([C@@H](Oc3cc(N4CCC5(CC4)CN[C@H](C(=O)O)C5)nc(N)n3)C(F)(F)F)c(-n3ccc(C)n3)c2)cc(C(C)(C)C)c1 [Example 1bj, (S)-8-(2-amino-6-((R)-1-(3′-(tert-butyl)-5′-methyl-3-(3-methyl-1H-pyrazol-1-yl)-[1,1′-biphenyl]-4-yl)-2,2,2-trifluoroethoxy)pyrimidin-4-yl)-2,8-diazaspiro[4.5]decane-3-carboxylic acid]",50 to 300 nM
2,"Cc1ccn(-c2cc(-c3cccc(Cl)c3)ccc2[C@@H](Oc2cc(N3CCC4(CC3)CN[C@H](C(=O)O)C4)nc(N)n2)C(F)(F)F)n1 [Example 1bk, (S)-8-(2-amino-6-((R)-1-(3′-chloro-3-(3-methyl-1H-pyrazol-1-yl)-[1,1′-biphenyl]-4-yl)-2,2,2-trifluoroethoxy)pyrimidin-4-yl)-2,8-diazaspiro[4.5]decane-3-carboxylic acid]",< 50 nM
3,"Cc1ccn(-c2cc(-c3ccc(C(F)(F)F)c(Cl)c3)ccc2[C@@H](Oc2cc(N3CCC4(CC3)CN[C@H](C(=O)O)C4)nc(N)n2)C(F)(F)F)n1 [Example 1bl, (S)-8-(2-amino-6-((R)-1-(3′-chloro-3-(3-methyl-1H-pyrazol-1-yl)-4′-(trifluoromethyl)-[1,1′-biphenyl]-4-yl)-2,2,2-trifluoroethoxy)pyrimidin-4-yl)-2,8-diazaspiro[4.5]decane-3-carboxylic acid]",< 50 nM
4,"CCOc1ccc(-c2ccc([C@@H](Oc3cc(N4CCC5(CC4)CN[C@H](C(=O)O)C5)nc(N)n3)C(F)(F)F)c(-n3ccc(C)n3)c2)cc1F [Example 1bn, (S)-8-(2-amino-6-((R)-1-(4′-ethoxy-3′-fluoro-3-(3-methyl-1H-pyrazol-1-yl)-[1,1′-biphenyl]-4-yl)-2,2,2-trifluoroethoxy)pyrimidin-4-yl)-2,8-diazaspiro[4.5]decane-3-carboxylic acid]",< 50 nM
5,"Cc1ccn(-c2cc(-c3cc(F)c(F)c(F)c3)ccc2[C@@H](Oc2cc(N3CCC4(CC3)CN[C@H](C(=O)O)C4)nc(N)n2)C(F)(F)F)n1 [Example 1bo, (S)-8-(2-amino-6-((R)-2,2,2-trifluoro-1-(3′,4′,5′-trifluoro-3-(3-methyl-1H-pyrazol-1-yl)-[1,1′-biphenyl]-4-yl)ethoxy)pyrimidin-4-yl)-2,8-diazaspiro[4.5]decane-3-carboxylic acid]",50 to 300 nM
6,"Cc1ccn(-c2cc(-c3ccc(C)c(Cl)c3)ccc2[C@@H](Oc2cc(N3CCC4(CC3)CN[C@H](C(=O)O)C4)nc(N)n2)C(F)(F)F)n1 [Example 1bp, (S)-8-(2-amino-6-((R)-1-(3′-chloro-4′-methyl-3-(3-methyl-1H-pyrazol-1-yl)-[1,1′-biphenyl]-4-yl)-2,2,2-trifluoroethoxy)pyrimidin-4-yl)-2,8-diazaspiro[4.5]decane-3-carboxylic acid]",< 50 nM
7,"Cc1ccn(-c2cc(-c3ccc(OC(F)(F)F)c(C)c3)ccc2[C@@H](Oc2cc(N3CCC4(CC3)CN[C@H](C(=O)O)C4)nc(N)n2)C(F)(F)F)n1 [Example 1bq, (S)-8-(2-amino-6-((R)-2,2,2-trifluoro-1-(3′-methyl-3-(3-methyl-1H-pyrazol-1-yl)-4′-(trifluoromethoxy)-[1,1′-biphenyl]-4-yl)ethoxy)pyrimidin-4-yl)-2,8-diazaspiro[4.5]decane-3-carboxylic acid]",< 50 nM
